# Laboratory results reported in ChEMBL document CHEMBL1142814, “Synthesis and preliminary biological evaluation of new anti-tubulin agents containing different benzoheterocycles” (Bioorg Med Chem Lett, 2005).
# pIC50: −log10 of the molar value.
# Legend:
# [1] = test system: L1210; assay: Concentration required to inhibit murine leukemia L1210 cell line proliferation; assay type: functional, cell-based; conditions: Mus musculus
# [2] = target: Tubulin beta chain (Bos taurus); assay: Concentration required to inhibit tubulin polymerization at 10 uM
# [3] = test system: CCRF-CEM; assay: Concentration required to inhibit human T-lymphoblast CEM cell line proliferation; assay type: functional, cell-based
# [4] = target: Tubulin beta chain (Bos taurus) (UniProt Q6B856); assay: Inhibition of 1 uM [3H]colchicine binding to tubulin at 5 uM
# Tubulin beta chain (Bos taurus) (UniProt Q6B856), sequence (Q6B856 whole entry): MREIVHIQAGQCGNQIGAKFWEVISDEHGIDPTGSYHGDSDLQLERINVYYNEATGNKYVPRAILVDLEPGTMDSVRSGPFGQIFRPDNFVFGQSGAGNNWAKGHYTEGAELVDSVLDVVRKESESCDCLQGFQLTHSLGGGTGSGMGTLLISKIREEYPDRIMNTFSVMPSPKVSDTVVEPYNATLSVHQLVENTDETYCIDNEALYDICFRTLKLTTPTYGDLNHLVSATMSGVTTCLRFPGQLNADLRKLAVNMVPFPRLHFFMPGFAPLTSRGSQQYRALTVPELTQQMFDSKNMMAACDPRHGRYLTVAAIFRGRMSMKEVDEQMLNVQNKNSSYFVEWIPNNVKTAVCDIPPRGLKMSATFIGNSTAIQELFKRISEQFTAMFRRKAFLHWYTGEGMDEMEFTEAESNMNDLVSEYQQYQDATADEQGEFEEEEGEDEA
# [5] = test system: FM3A; assay: Concentration required to inhibit murine mammary carcinoma FM3A cell line proliferation; assay type: functional, cell-based; conditions: Mus musculus
# [6] = test system: MOLT-4; assay: Concentration required to inhibit human T-lymphoblast Molt4/C8 cell line proliferation; assay type: functional, cell-based
# [7] = target: Tubulin beta chain (Bos taurus) (UniProt Q6B856); assay: Inhibition of [3H]colchicine binding to 1 uM beta-tubulin at 2 uM
Structure (SMILES),pIC50 [1],pIC50 [2],pIC50 [3],inhibition [4] [%],pIC50 [5],pIC50 [6],inhibition [7] [%]
COc1cc(C(=O)c2sc3ccccc3c2N)cc(OC)c1OC,6.46,5.38,6.51,39,5.74,6.54,
COc1cc(C(=O)c2c(N)sc3ccccc23)cc(OC)c1OC,,5.51,,57,,7.14,
COc1cc(C(=O)c2oc3ccccc3c2N)cc(OC)c1OC,< 5.00,,< 5.00,,< 5.00,< 5.00,
COc1cc(C(=O)c2[nH]c3ccccc3c2N)cc(OC)c1OC,< 5.00,,< 5.00,,< 5.00,< 5.00,
COc1ccc(C(=O)c2c(N)sc3ccccc23)cc1,< 5.00,,< 5.00,,< 5.00,5.04,
COc1cc(C(=O)c2c(N)sc3c2CCCC3)cc(OC)c1OC,5.65,< 4.40,5.67,3,5.25,5.80,
COc1ccc(C(=O)c2c(N)sc3ccccc23)cc1OC,5.43,,5.77,,5.33,5.77,
COc1cc(C(=O)c2sc3cc(C)ccc3c2N)cc(OC)c1OC,7.24,5.89,7.62,88,7.15,7.47,77
